Legend:
[1] = system: Tyrosine-protein kinase ABL1 (Homo sapiens), P00519 [E255K]; conditions: Compound concentration 1000.0 nM
[2] = system: Tyrosine-protein kinase ABL1 (Homo sapiens), P00519 [F317I]; conditions: Compound concentration 1000.0 nM
[3] = system: Tyrosine-protein kinase ABL1 (Homo sapiens), P00519 [Q252H]; conditions: Compound concentration 1000.0 nM
[4] = target: Activin receptor type-2B (Homo sapiens) (UniProt Q13705); conditions: Compound concentration 1000.0 nM
[5] = target: Atypical kinase COQ8A, mitochondrial (Homo sapiens) (UniProt Q8NI60); conditions: Compound concentration 1000.0 nM
[6] = target: RAC-beta serine/threonine-protein kinase (Homo sapiens) (UniProt P31751); conditions: Compound concentration 1000.0 nM
[7] = target: Cyclin-dependent kinase 19 (Homo sapiens) (UniProt Q9BWU1); conditions: Compound concentration 1000.0 nM
[8] = target: Cyclin-dependent kinase 3 (Homo sapiens) (UniProt Q00526); conditions: Compound concentration 1000.0 nM
[9] = target: Megakaryocyte-associated tyrosine-protein kinase (Homo sapiens) (UniProt P42679); conditions: Compound concentration 1000.0 nM
[10] = target: Death-associated protein kinase 2 (Homo sapiens) (UniProt Q9UIK4); conditions: Compound concentration 1000.0 nM
Sequence of Death-associated protein kinase 2 (Homo sapiens) (Q9UIK4 whole entry, looked up): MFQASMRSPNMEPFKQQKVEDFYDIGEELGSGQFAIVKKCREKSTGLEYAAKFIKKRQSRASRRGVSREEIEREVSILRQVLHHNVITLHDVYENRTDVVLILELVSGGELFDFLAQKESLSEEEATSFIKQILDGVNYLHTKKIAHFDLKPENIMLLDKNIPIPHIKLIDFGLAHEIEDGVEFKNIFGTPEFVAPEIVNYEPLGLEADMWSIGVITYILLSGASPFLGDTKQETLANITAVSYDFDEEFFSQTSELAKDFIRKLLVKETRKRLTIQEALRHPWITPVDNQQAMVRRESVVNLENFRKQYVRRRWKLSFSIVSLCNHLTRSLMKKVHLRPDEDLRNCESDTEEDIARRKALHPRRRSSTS

[11] = target: Serine/threonine-protein kinase DCLK3 (Homo sapiens) (UniProt Q9C098); conditions: Compound concentration 1000.0 nM
Sequence of Serine/threonine-protein kinase DCLK3 (Homo sapiens) (Q9C098 whole entry): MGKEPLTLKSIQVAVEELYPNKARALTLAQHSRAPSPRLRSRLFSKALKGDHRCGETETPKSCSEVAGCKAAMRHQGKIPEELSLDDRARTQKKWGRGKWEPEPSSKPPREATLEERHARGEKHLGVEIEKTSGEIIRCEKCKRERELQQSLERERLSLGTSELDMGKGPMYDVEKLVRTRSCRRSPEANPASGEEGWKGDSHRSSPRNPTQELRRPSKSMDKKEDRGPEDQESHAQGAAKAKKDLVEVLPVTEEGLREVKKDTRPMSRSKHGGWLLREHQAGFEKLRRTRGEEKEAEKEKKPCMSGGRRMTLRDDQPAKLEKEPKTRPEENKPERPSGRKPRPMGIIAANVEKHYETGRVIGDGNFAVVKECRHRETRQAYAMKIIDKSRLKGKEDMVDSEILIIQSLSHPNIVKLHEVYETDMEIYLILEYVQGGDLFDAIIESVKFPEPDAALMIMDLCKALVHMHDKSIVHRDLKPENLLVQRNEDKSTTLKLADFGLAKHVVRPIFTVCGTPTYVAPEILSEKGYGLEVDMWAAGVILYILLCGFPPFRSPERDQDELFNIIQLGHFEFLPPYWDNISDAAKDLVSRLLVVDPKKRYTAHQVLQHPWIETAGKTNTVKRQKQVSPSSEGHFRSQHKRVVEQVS

[12] = target: Dual specificity tyrosine-phosphorylation-regulated kinase 1B (Homo sapiens) (UniProt Q9Y463); conditions: Compound concentration 1000.0 nM
[13] = target: Eukaryotic translation initiation factor 2-alpha kinase 1 (Homo sapiens) (UniProt Q9BQI3); conditions: Compound concentration 1000.0 nM
[14] = target: Ephrin type-A receptor 4 (Homo sapiens) (UniProt P54764); conditions: Compound concentration 1000.0 nM
[15] = target: Mitogen-activated protein kinase 4 (Homo sapiens) (UniProt P31152); conditions: Compound concentration 1000.0 nM
Sequence of Mitogen-activated protein kinase 4 (Homo sapiens) (P31152 whole entry): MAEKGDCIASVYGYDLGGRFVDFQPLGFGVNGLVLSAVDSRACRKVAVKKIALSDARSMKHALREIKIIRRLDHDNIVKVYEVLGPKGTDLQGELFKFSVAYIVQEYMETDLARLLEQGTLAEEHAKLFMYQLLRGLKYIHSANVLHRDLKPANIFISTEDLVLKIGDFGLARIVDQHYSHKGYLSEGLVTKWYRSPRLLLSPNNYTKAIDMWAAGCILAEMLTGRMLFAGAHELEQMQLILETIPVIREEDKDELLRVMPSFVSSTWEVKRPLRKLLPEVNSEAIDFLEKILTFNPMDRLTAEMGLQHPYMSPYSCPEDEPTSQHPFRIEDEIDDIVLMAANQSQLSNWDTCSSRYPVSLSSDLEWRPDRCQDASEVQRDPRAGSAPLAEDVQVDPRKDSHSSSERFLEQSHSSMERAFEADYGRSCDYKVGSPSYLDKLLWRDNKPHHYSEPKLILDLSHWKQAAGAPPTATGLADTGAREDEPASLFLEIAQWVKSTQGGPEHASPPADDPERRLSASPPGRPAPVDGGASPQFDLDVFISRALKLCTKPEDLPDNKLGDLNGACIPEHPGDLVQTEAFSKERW

[16] = system: Fibroblast growth factor receptor 3 (Homo sapiens), P22607 [G697C]; conditions: Compound concentration 1000.0 nM
[17] = system: Receptor-type tyrosine-protein kinase FLT3 (Homo sapiens), P36888 [D835H]; conditions: Compound concentration 1000.0 nM
[18] = system: Receptor-type tyrosine-protein kinase FLT3 (Homo sapiens), P36888 [R834Q]; conditions: Compound concentration 1000.0 nM
[19] = target: Tyrosine-protein kinase JAK1 (Homo sapiens) (UniProt P23458); conditions: Compound concentration 1000.0 nM
Sequence of Tyrosine-protein kinase JAK1 (Homo sapiens) (P23458 whole entry): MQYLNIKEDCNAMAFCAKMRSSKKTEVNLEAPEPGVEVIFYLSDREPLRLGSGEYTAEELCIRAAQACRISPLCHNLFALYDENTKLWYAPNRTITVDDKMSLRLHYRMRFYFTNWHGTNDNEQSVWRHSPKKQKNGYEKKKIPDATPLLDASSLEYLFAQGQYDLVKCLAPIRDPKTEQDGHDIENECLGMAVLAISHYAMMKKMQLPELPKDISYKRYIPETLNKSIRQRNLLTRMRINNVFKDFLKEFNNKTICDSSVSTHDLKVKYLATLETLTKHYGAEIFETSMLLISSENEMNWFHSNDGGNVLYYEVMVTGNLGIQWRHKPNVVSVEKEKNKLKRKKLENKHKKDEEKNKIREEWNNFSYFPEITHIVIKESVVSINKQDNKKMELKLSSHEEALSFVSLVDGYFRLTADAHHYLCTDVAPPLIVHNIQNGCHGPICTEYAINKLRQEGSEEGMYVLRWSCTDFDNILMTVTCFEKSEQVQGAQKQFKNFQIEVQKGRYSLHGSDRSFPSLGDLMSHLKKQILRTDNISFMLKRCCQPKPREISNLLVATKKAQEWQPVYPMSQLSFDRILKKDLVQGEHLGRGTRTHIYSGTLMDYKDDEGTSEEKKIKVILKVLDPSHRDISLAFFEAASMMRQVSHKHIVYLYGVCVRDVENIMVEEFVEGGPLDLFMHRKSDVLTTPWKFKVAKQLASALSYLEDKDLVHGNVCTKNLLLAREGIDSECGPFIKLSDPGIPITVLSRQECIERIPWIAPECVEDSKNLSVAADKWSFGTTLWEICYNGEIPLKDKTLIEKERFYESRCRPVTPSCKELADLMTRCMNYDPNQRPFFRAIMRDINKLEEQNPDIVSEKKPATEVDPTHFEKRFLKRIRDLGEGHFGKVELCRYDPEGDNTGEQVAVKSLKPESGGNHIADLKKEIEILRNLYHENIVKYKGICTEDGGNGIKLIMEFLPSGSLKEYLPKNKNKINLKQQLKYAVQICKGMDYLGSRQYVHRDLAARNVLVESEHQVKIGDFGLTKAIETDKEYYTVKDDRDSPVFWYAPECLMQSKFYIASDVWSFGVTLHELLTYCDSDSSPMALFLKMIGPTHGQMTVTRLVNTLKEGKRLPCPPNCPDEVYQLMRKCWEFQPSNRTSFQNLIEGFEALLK

[20] = target: Myosin light chain kinase, smooth muscle (Homo sapiens) (UniProt Q15746); conditions: Compound concentration 1000.0 nM
[21] = target: Serine/threonine-protein kinase Nek11 (Homo sapiens) (UniProt Q8NG66); conditions: Compound concentration 1000.0 nM
[22] = target: Serine/threonine-protein kinase Nek5 (Homo sapiens) (UniProt Q6P3R8); conditions: Compound concentration 1000.0 nM
Sequence of Serine/threonine-protein kinase Nek5 (Homo sapiens) (Q6P3R8 whole entry): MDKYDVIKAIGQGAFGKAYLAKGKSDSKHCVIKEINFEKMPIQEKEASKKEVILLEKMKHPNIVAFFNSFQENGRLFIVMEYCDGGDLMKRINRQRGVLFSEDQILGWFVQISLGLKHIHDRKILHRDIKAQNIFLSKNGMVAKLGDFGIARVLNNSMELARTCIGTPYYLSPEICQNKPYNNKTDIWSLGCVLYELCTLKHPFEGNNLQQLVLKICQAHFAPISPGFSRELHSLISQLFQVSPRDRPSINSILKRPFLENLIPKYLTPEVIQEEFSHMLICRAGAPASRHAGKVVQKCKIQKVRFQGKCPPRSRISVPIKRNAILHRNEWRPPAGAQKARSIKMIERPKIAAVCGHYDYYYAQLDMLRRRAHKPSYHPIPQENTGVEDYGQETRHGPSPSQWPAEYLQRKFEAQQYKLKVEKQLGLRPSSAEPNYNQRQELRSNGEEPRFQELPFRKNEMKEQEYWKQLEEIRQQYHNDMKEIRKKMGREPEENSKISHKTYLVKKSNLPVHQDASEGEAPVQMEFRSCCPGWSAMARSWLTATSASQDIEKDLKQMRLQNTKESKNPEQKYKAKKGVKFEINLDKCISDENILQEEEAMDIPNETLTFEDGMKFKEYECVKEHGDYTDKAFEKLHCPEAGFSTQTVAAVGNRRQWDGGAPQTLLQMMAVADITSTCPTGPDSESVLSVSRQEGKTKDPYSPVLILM

[23] = target: Mitogen-activated protein kinase 11 (Homo sapiens) (UniProt Q15759); conditions: Compound concentration 1000.0 nM
[24] = target: Mitogen-activated protein kinase 12 (Homo sapiens) (UniProt P53778); conditions: Compound concentration 1000.0 nM
[25] = target: Serine/threonine-protein kinase PAK 1 (Homo sapiens) (UniProt Q13153); conditions: Compound concentration 1000.0 nM
[26] = target: Serine/threonine-protein kinase PAK 5 (Homo sapiens) (UniProt Q9P286); conditions: Compound concentration 1000.0 nM
[27] = target: Cyclin-dependent kinase 15 (Homo sapiens) (UniProt Q96Q40); conditions: Compound concentration 1000.0 nM
[28] = target: Cyclin-dependent kinase 14 (Homo sapiens) (UniProt O94921); conditions: Compound concentration 1000.0 nM
[29] = system: Phosphatidylinositol 4,5-bisphosphate 3-kinase catalytic subunit alpha isoform (Homo sapiens), P42336 [E545K]; conditions: Compound concentration 1000.0 nM
[30] = system: Phosphatidylinositol 4,5-bisphosphate 3-kinase catalytic subunit alpha isoform (Homo sapiens), P42336 [H1047Y]; conditions: Compound concentration 1000.0 nM
Sequence of Phosphatidylinositol 4,5-bisphosphate 3-kinase catalytic subunit alpha isoform (Homo sapiens), P42336 [H1047Y] (P42336 whole entry H1047Y, canonical isoform): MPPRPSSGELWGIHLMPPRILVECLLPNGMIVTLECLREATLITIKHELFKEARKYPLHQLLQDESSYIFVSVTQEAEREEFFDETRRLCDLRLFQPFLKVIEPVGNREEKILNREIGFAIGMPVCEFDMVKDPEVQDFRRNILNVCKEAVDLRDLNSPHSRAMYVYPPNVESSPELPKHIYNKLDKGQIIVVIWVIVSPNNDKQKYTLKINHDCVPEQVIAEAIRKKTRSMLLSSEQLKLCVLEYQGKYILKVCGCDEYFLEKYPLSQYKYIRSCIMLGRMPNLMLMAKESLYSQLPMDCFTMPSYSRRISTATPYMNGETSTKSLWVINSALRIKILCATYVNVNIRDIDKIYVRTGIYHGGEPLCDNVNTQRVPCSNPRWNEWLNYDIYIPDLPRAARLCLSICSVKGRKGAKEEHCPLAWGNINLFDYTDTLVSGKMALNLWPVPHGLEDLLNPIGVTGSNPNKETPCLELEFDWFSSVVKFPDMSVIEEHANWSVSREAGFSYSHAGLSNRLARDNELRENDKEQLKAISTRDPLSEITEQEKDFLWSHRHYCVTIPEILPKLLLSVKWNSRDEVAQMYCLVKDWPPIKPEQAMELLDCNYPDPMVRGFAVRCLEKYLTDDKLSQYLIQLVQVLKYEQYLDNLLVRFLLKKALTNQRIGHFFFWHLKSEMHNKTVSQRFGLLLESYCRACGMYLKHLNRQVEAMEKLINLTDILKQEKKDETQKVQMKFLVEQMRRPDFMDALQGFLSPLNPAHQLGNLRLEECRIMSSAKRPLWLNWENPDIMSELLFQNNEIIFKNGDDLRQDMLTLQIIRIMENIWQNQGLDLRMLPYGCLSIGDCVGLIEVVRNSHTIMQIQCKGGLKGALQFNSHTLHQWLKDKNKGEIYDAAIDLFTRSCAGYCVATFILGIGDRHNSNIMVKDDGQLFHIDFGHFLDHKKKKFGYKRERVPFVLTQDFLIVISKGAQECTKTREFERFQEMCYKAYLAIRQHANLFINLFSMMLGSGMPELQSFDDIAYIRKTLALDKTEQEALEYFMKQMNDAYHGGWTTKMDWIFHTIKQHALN

[31] = target: Phosphatidylinositol 4-phosphate 5-kinase type-1 gamma (Homo sapiens) (UniProt O60331); conditions: Compound concentration 1000.0 nM
[32] = target: Serine/threonine-protein kinase N2 (Homo sapiens) (UniProt Q16513); conditions: Compound concentration 1000.0 nM
[33] = target: Protein kinase C delta type (Homo sapiens) (UniProt Q05655); conditions: Compound concentration 1000.0 nM
[34] = target: Serine/threonine-protein kinase D3 (Homo sapiens) (UniProt O94806); conditions: Compound concentration 1000.0 nM
[35] = target: Uncharacterized serine/threonine-protein kinase SBK3 (Homo sapiens) (UniProt P0C264); conditions: Compound concentration 1000.0 nM
[36] = target: Serine/threonine-protein kinase SIK1 (Homo sapiens) (UniProt P57059); conditions: Compound concentration 1000.0 nM
[37] = target: SRSF protein kinase 1 (Homo sapiens) (UniProt Q96SB4); conditions: Compound concentration 1000.0 nM
[38] = target: Dual specificity testis-specific protein kinase 1 (Homo sapiens) (UniProt Q15569); conditions: Compound concentration 1000.0 nM
[39] = target: TGF-beta receptor type-1 (Homo sapiens) (UniProt P36897); conditions: Compound concentration 1000.0 nM
[40] = target: Serine/threonine-protein kinase tousled-like 1 (Homo sapiens) (UniProt Q9UKI8); conditions: Compound concentration 1000.0 nM
[41] = target: Testis-specific serine/threonine-protein kinase 1 (Homo sapiens) (UniProt Q9BXA7); conditions: Compound concentration 1000.0 nM
[42] = target: Testis-specific serine/threonine-protein kinase 3 (Homo sapiens) (UniProt Q96PN8); conditions: Compound concentration 1000.0 nM
[43] = target: Serine/threonine-protein kinase WNK4 (Homo sapiens) (UniProt Q96J92); conditions: Compound concentration 1000.0 nM
[44] = target: Serine/threonine-protein kinase 32A (Homo sapiens) (UniProt Q8WU08); conditions: Compound concentration 1000.0 nM
[45] = target: Sodium-dependent dopamine transporter (Homo sapiens) (UniProt Q01959); conditions: Compound concentration 10.0 uM

Sequence of Activin receptor type-2B (Homo sapiens) (Q13705 whole entry): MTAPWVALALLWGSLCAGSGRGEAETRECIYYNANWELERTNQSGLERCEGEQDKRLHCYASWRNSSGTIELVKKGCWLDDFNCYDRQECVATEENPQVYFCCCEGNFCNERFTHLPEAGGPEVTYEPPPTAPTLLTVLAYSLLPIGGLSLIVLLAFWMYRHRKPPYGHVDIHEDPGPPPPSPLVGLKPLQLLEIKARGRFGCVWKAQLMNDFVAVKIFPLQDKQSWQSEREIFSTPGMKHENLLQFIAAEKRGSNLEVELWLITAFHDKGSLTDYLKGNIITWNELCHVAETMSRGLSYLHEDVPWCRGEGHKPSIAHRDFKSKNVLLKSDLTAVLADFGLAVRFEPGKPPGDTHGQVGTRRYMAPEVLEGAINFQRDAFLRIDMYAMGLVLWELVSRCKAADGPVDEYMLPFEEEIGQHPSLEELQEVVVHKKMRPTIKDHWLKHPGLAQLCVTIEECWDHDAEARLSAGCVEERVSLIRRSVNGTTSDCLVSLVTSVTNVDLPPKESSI

COc1cccc(CNC(=O)c2nc3scc(COCc4ccc(C(=O)O)cc4)c3c(=O)[nH]2)c1 [T-26c]
inactive: residual activity [1] 83% | residual activity [2] 96.4% | residual activity [3] 91.4% | residual activity [4] 100% | residual activity [5] 100% | residual activity [6] 93.3% | residual activity [7] 100% | residual activity [8] 100% | residual activity [9] 97.8% | residual activity [10] 83.1% | residual activity [11] 100% | residual activity [12] 100% | residual activity [13] 88% | residual activity [14] 91.1% | residual activity [15] 80% | residual activity [16] 80.2% | residual activity [17] 92.9% | residual activity [18] 77.9% | residual activity [19] 76% | residual activity [20] 100% | residual activity [21] 65.6% | residual activity [22] 100% | residual activity [23] 100% | residual activity [24] 92.1% | residual activity [25] 100% | residual activity [26] 87.4% | residual activity [27] 97.6% | residual activity [28] 100% | residual activity [29] 86.3% | residual activity [30] 100% | residual activity [31] 63.7% | residual activity [32] 98% | residual activity [33] 87.7% | residual activity [34] 100% | residual activity [35] 100% | residual activity [36] 100% | residual activity [37] 100% | residual activity [38] 82.8% | residual activity [39] 83.2% | residual activity [40] 100% | residual activity [41] 88.2% | residual activity [42] 81.4% | residual activity [43] 100% | residual activity [44] 100% | inhibition [45] 9.28%

— ChEMBL document CHEMBL4507300 (2021)
